Results reported in PubChem BioAssay (NCI).
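Five compound concentrations were applied to cells in 96-well plates for 48 hours; endpoints were derived by simple linear interpolation of the resulting dose-response curve. The concentration for full growth arrest is given as TGI.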

Experiments:
Assay in all cases: NCI tumour cell line growth inhibition, 48 h
PC-3 prostate = tested on: PC-3 prostate
NCI-H23 lung = tested on: NCI-H23 lung
MDA-MB-231 breast = tested on: MDA-MB-231 breast
DU-145 prostate = tested on: DU-145 prostate
SNB-19 CNS = tested on: SNB-19 CNS
K-562 leukemia = tested on: K-562 leukemia
HS 578T breast = tested on: HS 578T breast
SW-620 colon = tested on: SW-620 colon
A498 renal = tested on: A498 renal
CCRF-CEM leukemia = tested on: CCRF-CEM leukemia
UACC-62 melanoma = tested on: UACC-62 melanoma
TK-10 renal = tested on: TK-10 renal
M14 melanoma = tested on: M14 melanoma
EKVX NSCLC = tested on: EKVX NSCLC
786-0 renal = tested on: 786-0 renal
SK-MEL-5 melanoma = tested on: SK-MEL-5 melanoma
T-47D breast = tested on: T-47D breast
OVCAR-4 ovarian = tested on: OVCAR-4 ovarian
SF-268 CNS = tested on: SF-268 CNS
SNB-75 CNS = tested on: SNB-75 CNS
MOLT-4 leukemia = tested on: MOLT-4 leukemia
HOP-92 NSCLC = tested on: HOP-92 NSCLC
SK-MEL-28 melanoma = tested on: SK-MEL-28 melanoma
NCI/ADR-RES ovarian = tested on: NCI/ADR-RES ovarian
NCI-H522 lung = tested on: NCI-H522 lung
SK-MEL-2 melanoma = tested on: SK-MEL-2 melanoma
U251 CNS = tested on: U251 CNS
OVCAR-5 ovarian = tested on: OVCAR-5 ovarian
ACHN renal = tested on: ACHN renal
BT-549 breast = tested on: BT-549 breast
SR leukemia = tested on: SR leukemia
IGROV1 ovarian = tested on: IGROV1 ovarian
A549 NSCLC = tested on: A549 NSCLC
MDA-MB-435 = tested on: MDA-MB-435
LOX IMVI melanoma = tested on: LOX IMVI melanoma
RPMI-8226 leukemia = tested on: RPMI-8226 leukemia
SF-539 CNS = tested on: SF-539 CNS
UO-31 renal = tested on: UO-31 renal
MDA-N = tested on: MDA-N
MCF7 breast = tested on: MCF7 breast
KM12 colon = tested on: KM12 colon
HOP-62 NSCLC = tested on: HOP-62 NSCLC
HCT-15 colon = tested on: HCT-15 colon
HT29 colon = tested on: HT29 colon
COLO 205 colon = tested on: COLO 205 colon
HCT-116 colon = tested on: HCT-116 colon
HCC-2998 colon = tested on: HCC-2998 colon
OVCAR-8 ovarian = tested on: OVCAR-8 ovarian
UACC-257 melanoma = tested on: UACC-257 melanoma
CAKI-1 renal = tested on: CAKI-1 renal
SF-295 CNS = tested on: SF-295 CNS
SN12C renal = tested on: SN12C renal
NCI-H460 lung = tested on: NCI-H460 lung
NCI-H226 lung = tested on: NCI-H226 lung
OVCAR-3 ovarian = tested on: OVCAR-3 ovarian
RXF 393 renal = tested on: RXF 393 renal
MALME-3M melanoma = tested on: MALME-3M melanoma
HL-60(TB) leukemia = tested on: HL-60(TB) leukemia
SK-OV-3 ovarian = tested on: SK-OV-3 ovarian

Compound: COc1ccc2c(c1)CC[C@@H]1[C@@H]2CC[C@]2(C)/C(=N/OCCN3CCCC3)CC[C@@H]12
- TGI (PC-3 prostate): 13.5 µM
- TGI (NCI-H23 lung): 19.5 µM
- TGI (MDA-MB-231 breast): 8.92 µM
- TGI (DU-145 prostate): 15.5 µM
- TGI (SNB-19 CNS): 28.1 µM
- TGI (K-562 leukemia): 2.58 µM
- TGI (HS 578T breast): 7.29 µM
- TGI (SW-620 colon): 3.68 µM
- TGI (A498 renal): 9.9 µM
- TGI (CCRF-CEM leukemia): 3.67 µM
- TGI (UACC-62 melanoma): 3.53 µM
- TGI (TK-10 renal): 16.9 µM
- TGI (M14 melanoma): 2.64 µM
- TGI (EKVX NSCLC): 12.3 µM
- TGI (786-0 renal): 3.37 µM
- TGI (SK-MEL-5 melanoma): 3.41 µM
- TGI (T-47D breast): 9.64 µM
- TGI (OVCAR-4 ovarian): 24.3 µM
- TGI (SF-268 CNS): 14.4 µM
- TGI (SNB-75 CNS): 9.49 µM
- TGI (MOLT-4 leukemia): 4.85 µM
- TGI (HOP-92 NSCLC): 6.5 µM
- TGI (SK-MEL-28 melanoma): 2.82 µM
- TGI (NCI/ADR-RES ovarian): 28.7 µM
- TGI (NCI-H522 lung): 11.5 µM
- TGI (SK-MEL-2 melanoma): 4.2 µM
- TGI (U251 CNS): 10.4 µM
- TGI (OVCAR-5 ovarian): 10.1 µM
- TGI (ACHN renal): 15.5 µM
- TGI (BT-549 breast): 22.4 µM
- TGI (SR leukemia): 4.49 µM
- TGI (IGROV1 ovarian): 18.4 µM
- TGI (A549 NSCLC): 7.7 µM
- TGI (MDA-MB-435): 2.43 µM
- TGI (LOX IMVI melanoma): 3.19 µM
- TGI (RPMI-8226 leukemia): 3.65 µM
- TGI (SF-539 CNS): 3.92 µM
- TGI (UO-31 renal): 7.54 µM
- TGI (MDA-N): 3.98 µM
- TGI (MCF7 breast): 8.92 µM
- TGI (KM12 colon): 6.31 µM
- TGI (HOP-62 NSCLC): 4.67 µM
- TGI (HCT-15 colon): 2.65 µM
- TGI (HT29 colon): 3.96 µM
- TGI (COLO 205 colon): 3.06 µM
- TGI (HCT-116 colon): 3.43 µM
- TGI (HCC-2998 colon): 3.49 µM
- TGI (OVCAR-8 ovarian): 12.4 µM
- TGI (UACC-257 melanoma): 3.81 µM
- TGI (CAKI-1 renal): 3.42 µM
- TGI (SF-295 CNS): 4.63 µM
- TGI (SN12C renal): 15.9 µM
- TGI (NCI-H460 lung): 3.08 µM
- TGI (NCI-H226 lung): 5.26 µM
- TGI (OVCAR-3 ovarian): 16.2 µM
- TGI (RXF 393 renal): 4.16 µM
- TGI (MALME-3M melanoma): 3.17 µM
- TGI (HL-60(TB) leukemia): 5.53 µM

Compound: CCCNC1=C2C[C@@H](C)C[C@@H](OC)[C@@H](OC(=O)CCCN)[C@H](C)/C=C(\C)[C@@H](OC(N)=O)[C@H](OC)/C=C\C=C(/C)C(=O)NC(=CC1=O)C2=O
- TGI (PC-3 prostate): 26.9 µM
- TGI (NCI-H23 lung): 29.4 µM
- TGI (MDA-MB-231 breast): 36.7 µM
- TGI (DU-145 prostate): 26.3 µM
- TGI (SNB-19 CNS): 29.7 µM
- TGI (K-562 leukemia): > 20.9 µM
- TGI (HS 578T breast): 60.9 µM
- TGI (SW-620 colon): > 43.8 µM
- TGI (SK-OV-3 ovarian): 32.4 µM
- TGI (A498 renal): 37.1 µM
- TGI (CCRF-CEM leukemia): 6.8 µM
- TGI (UACC-62 melanoma): 29.4 µM
- TGI (TK-10 renal): 36.1 µM
- TGI (M14 melanoma): 32.3 µM
- TGI (EKVX NSCLC): 37.5 µM
- TGI (786-0 renal): 53.9 µM
- TGI (SK-MEL-5 melanoma): 24.5 µM
- TGI (T-47D breast): 28.5 µM
- TGI (OVCAR-4 ovarian): 39.4 µM
- TGI (SF-268 CNS): 36.7 µM
- TGI (MOLT-4 leukemia): 19.2 µM
- TGI (HOP-92 NSCLC): 25.8 µM
- TGI (SK-MEL-28 melanoma): 36.1 µM
- TGI (NCI/ADR-RES ovarian): 86.2 µM
- TGI (NCI-H522 lung): 19.1 µM
- TGI (SK-MEL-2 melanoma): 30.9 µM
- TGI (U251 CNS): > 35 µM
- TGI (OVCAR-5 ovarian): 30.5 µM
- TGI (ACHN renal): 37.6 µM
- TGI (BT-549 breast): 29.4 µM
- TGI (SR leukemia): > 23.8 µM
- TGI (IGROV1 ovarian): 34.8 µM
- TGI (A549 NSCLC): 40.6 µM
- TGI (MDA-MB-435): 32.2 µM
- TGI (LOX IMVI melanoma): > 48.3 µM
- TGI (RPMI-8226 leukemia): 29.1 µM
- TGI (SF-539 CNS): 39.9 µM
- TGI (UO-31 renal): 36.1 µM
- TGI (MDA-N): 30.1 µM
- TGI (MCF7 breast): 31.4 µM
- TGI (KM12 colon): 26.1 µM
- TGI (HOP-62 NSCLC): 31.3 µM
- TGI (HCT-15 colon): 46.8 µM
- TGI (HT29 colon): 22.9 µM
- TGI (COLO 205 colon): 12.1 µM
- TGI (HCT-116 colon): 28.3 µM
- TGI (HCC-2998 colon): 38.1 µM
- TGI (OVCAR-8 ovarian): 43.7 µM
- TGI (UACC-257 melanoma): 12 µM
- TGI (CAKI-1 renal): 38.5 µM
- TGI (SF-295 CNS): 36.8 µM
- TGI (SN12C renal): > 48.8 µM
- TGI (NCI-H460 lung): 34.1 µM
- TGI (NCI-H226 lung): 39.8 µM
- TGI (OVCAR-3 ovarian): 24 µM
- TGI (RXF 393 renal): 33.3 µM
- TGI (MALME-3M melanoma): 28.4 µM
- TGI (HL-60(TB) leukemia): 8.01 µM
